Assay results reported in patent publication US9834514B2, “Antibiotic sensitivity-restoring and photosensitive agents” (New Mexico Tech Research Foundation, priority 2015, dated 2017).
Values after ≈ are worked out from the molar mass of the structure shown.

Tests used:
[1] = system: Klebsiella pneumoniae (CRE, ATCC BAA-1705); assay: Cell killing of CRE with compounds in presence or absence of PMB (CFU/mL); assay type: cell-based; conditions: for PMB + Comp: PMB @ 0.2 μg/mL + Comp @ 20 µM; for Comp @ 20 µM: compound alone
Procedure: Klebsiella pneumoniae (CRE, ATCC BAA-1705) was grown in TSB overnight at 37° C. and diluted to about 5×10^5 CFU/mL using a McFarland Latex Turbidity standard (0.5). One mL of the cell suspension was transferred to a glass culture test tube. PMB was added to the cell suspension resulting in a final concentration of 200 μg/mL of PMB. The cell suspension was incubated at 37° C. on a rotary shaking incubator at 150 rpm for 4 hours. Compounds 1, 7, 8, 9, 10, and 11 were added to the cell suspension, resulting in a concentration of 20 μM for each of the compounds. The cell suspensions containing the compounds were incubated at 37° C. on a rotary shaking incubator at 150 rpm for 4 hours. Each sample was diluted tenfold to a 10^−5 dilution. Ten 10 microliters of each dilution from each sample was dripped onto a TSA plate and allowed to streak down the plate. The agar plates were incubated at 37° C. for 18-24 hours. Colony counts were performed and CFU/mL values were calculated.
The MICs of PMB and compounds 7-11 were determined against Klebsiella pneumoniae (CRE, ATCC BAA-1705). […] After the incubation with PMB, each of the compounds was added at a concentration of 20 μM, and the samples were incubated for an additional 18 hours. A sample was taken and diluted ten-fold in media. Ten microliters of each dilution was then drip-streaked onto an agar plate and incubated overnight at 37° C. Colony counts were then performed and the concentrations of cells (CFU/mL) were calculated.

S. aureus (ATCC 29213) = assay: MIC against drug sensitive S. aureus; assay type: cell-based; conditions: Staphylococcus aureus, ATCC29213; ATCC 29213; read-out: S. aureus MIC
VRE = assay: Resensitization to antibiotics (log reduction, TABLE 29); assay type: cell-based, Enterococcus faecalis; conditions: compound 1 μM; Light (2 min)
HeLa cells = assay: Toxicity (IC50) on HeLa cells; assay type: cell-based, human; conditions: for IC50: Homo sapiens, cancerous cervical epithelium HeLa cells
Procedure: The toxicities of the compounds of the invention were determined for human cancerous cervical epithelium HeLa and normal lung fibroblast WI38 cells. The toxicities of EPIs INF-55 and INF-55Cl were quantified as controls. […] TABLE 2 compares the toxicity of compounds 7-11 on HeLa cells and normal WI38 cells.

[2] = system: MRSA isolates (S. aureus ATCC 33591, BAA-44, BAA-1707, BAA-1717, BAA-1720, BAA-1747, BAA-1754, BAA-1761, BAA-1763, BAA-1764, BAA-1766); assay: Combination effects of compounds 7-11 and antibiotics on MRSA isolates (turbidity); assay type: cell-based
Excerpt: Inhibition resulting from co-treatment of a broth suspension with a compound of the invention and an antibiotic was compared to broth suspensions subjected to each individual treatment. A visual observation of inhibition with the unaided eye upon co-treatment of the broth suspensions, based on turbidity, was considered synergistic.
Exceptions to reading complete inhibition of growth included Gram-positive cocci. For Gram-positive cocci, trailing growth was observed. For these species, the MICs were read at the first spot where trailing was observed, and tiny buttons of growth were ignored. […]
Two-fold dilutions of the antibiotics were prepared in a liquid growth medium dispensed in test tubes. […] The antibiotic-containing tubes were inoculated with a standard bacterial suspension of 5×10^5 CFU/mL. Following an overnight incubation (16-20 hrs) at 35±2° C. under ambient air, the tubes were examined for visible bacterial growth based on turbidity. The lowest concentration of antibiotic that prevented growth was determined to be the MIC. An incubation time of 24 hrs was used to determine the MICs of oxacillin and vancomycin.

Clc1ccc(/C=C/c2[nH]c3ccccc3c2/C=C/c2ccc(Cl)cc2)cc1 [Compound 1]
PMB + Comp [1]: 8.2 × 10^3 CFU/mL
Comp @ 20 µM [1]: 6.4 × 10^8 CFU/mL
MIC (S. aureus (ATCC 29213)): 100 µM (≈ 39 µg/mL)
Log Reduction (VRE): 8-9
IC50 (HeLa cells): 68.9 ± 4.8 µM

Clc1ccc(/N=N/c2c[nH]c3ccccc23)cc1 [Compound 9]
PMB + Comp [1]: None Detected
Comp @ 20 µM [1]: 6.4 × 10^8 CFU/mL
MIC (S. aureus (ATCC 29213)): 16 µM (≈ 4.09 µg/mL)
combination effect with Gentamycin ([2]; MRSA ATCC 33591): No Synergy
combination effect with Norfloxacin ([2]; MRSA ATCC 33591): No Synergy
combination effect with Oxacillin ([2]; MRSA ATCC 33591): No Synergy
combination effect with Tetracycline ([2]; MRSA ATCC 33591): No Synergy
combination effect with Vancomycin ([2]; MRSA ATCC 33591): Susceptible
combination effect with Norfloxacin ([2]; MRSA ATCC BAA-44): No Synergy
combination effect with Oxacillin ([2]; MRSA ATCC BAA-44): No Synergy
combination effect with Tetracycline ([2]; MRSA ATCC BAA-44): Susceptible
combination effect with Vancomycin ([2]; MRSA ATCC BAA-44): Susceptible
combination effect with Gentamycin ([2]; MRSA ATCC BAA-1707): Susceptible
combination effect with Norfloxacin ([2]; MRSA ATCC BAA-1707): Susceptible
combination effect with Oxacillin ([2]; MRSA ATCC BAA-1707): Susceptible
combination effect with Tetracycline ([2]; MRSA ATCC BAA-1707): No Synergy
combination effect with Vancomycin ([2]; MRSA ATCC BAA-1707): Susceptible
combination effect with Gentamycin ([2]; MRSA ATCC BAA-1717): Susceptible
combination effect with Norfloxacin ([2]; MRSA ATCC BAA-1717): Susceptible
combination effect with Oxacillin ([2]; MRSA ATCC BAA-1717): Synergy
combination effect with Tetracycline ([2]; MRSA ATCC BAA-1717): Susceptible
combination effect with Vancomycin ([2]; MRSA ATCC BAA-1717): Susceptible
combination effect with Gentamycin ([2]; MRSA ATCC BAA-1720): Susceptible
combination effect with Norfloxacin ([2]; MRSA ATCC BAA-1720): No Synergy
combination effect with Oxacillin ([2]; MRSA ATCC BAA-1720): Synergy
combination effect with Tetracycline ([2]; MRSA ATCC BAA-1720): Susceptible
combination effect with Vancomycin ([2]; MRSA ATCC BAA-1720): Susceptible
combination effect with Gentamycin ([2]; MRSA ATCC BAA-1747): Susceptible
combination effect with Norfloxacin ([2]; MRSA ATCC BAA-1747): Susceptible
combination effect with Oxacillin ([2]; MRSA ATCC BAA-1747): Susceptible
combination effect with Tetracycline ([2]; MRSA ATCC BAA-1747): Susceptible
combination effect with Vancomycin ([2]; MRSA ATCC BAA-1747): Susceptible
combination effect with Gentamycin ([2]; MRSA ATCC BAA-1754): Susceptible
combination effect with Norfloxacin ([2]; MRSA ATCC BAA-1754): Susceptible
combination effect with Oxacillin ([2]; MRSA ATCC BAA-1754): No Synergy
combination effect with Tetracycline ([2]; MRSA ATCC BAA-1754): Susceptible
combination effect with Vancomycin ([2]; MRSA ATCC BAA-1754): Susceptible
combination effect with Gentamycin ([2]; MRSA ATCC BAA-1761): Susceptible
combination effect with Norfloxacin ([2]; MRSA ATCC BAA-1761): No Synergy
combination effect with Oxacillin ([2]; MRSA ATCC BAA-1761): Susceptible
combination effect with Tetracycline ([2]; MRSA ATCC BAA-1761): Susceptible
combination effect with Vancomycin ([2]; MRSA ATCC BAA-1761): Susceptible
combination effect with Gentamycin ([2]; MRSA ATCC BAA-1763): Susceptible
combination effect with Norfloxacin ([2]; MRSA ATCC BAA-1763): No Synergy
combination effect with Oxacillin ([2]; MRSA ATCC BAA-1763): Synergy
combination effect with Tetracycline ([2]; MRSA ATCC BAA-1763): Susceptible
combination effect with Vancomycin ([2]; MRSA ATCC BAA-1763): Susceptible
combination effect with Gentamycin ([2]; MRSA ATCC BAA-1764): Susceptible
combination effect with Norfloxacin ([2]; MRSA ATCC BAA-1764): Susceptible
combination effect with Oxacillin ([2]; MRSA ATCC BAA-1764): Synergy
combination effect with Tetracycline ([2]; MRSA ATCC BAA-1764): Susceptible
combination effect with Vancomycin ([2]; MRSA ATCC BAA-1764): Susceptible
combination effect with Gentamycin ([2]; MRSA ATCC BAA-1766): Susceptible
combination effect with Norfloxacin ([2]; MRSA ATCC BAA-1766): Susceptible
combination effect with Oxacillin ([2]; MRSA ATCC BAA-1766): Synergy
combination effect with Tetracycline ([2]; MRSA ATCC BAA-1766): Susceptible
combination effect with Vancomycin ([2]; MRSA ATCC BAA-1766): Susceptible
IC50 (HeLa cells): 34.4 µM
toxicity to HeLa versus normal WI38 cells (HeLa cells; comparison of TABLE 2 values): killed cancerous HeLa cells at concentrations that were not toxic to normal WI38 cells

Clc1ccc(Oc2c(-c3ccc(Cl)cc3)[nH]c3ccc(Cl)cc23)cc1 [Compound 11]
PMB + Comp [1]: None Detected
Comp @ 20 µM [1]: 7.8 × 10^8 CFU/mL
MIC (S. aureus (ATCC 29213)): 32 to 64 µM (≈ 12.4 to 24.9 µg/mL)
combination effect with Gentamycin ([2]; MRSA ATCC 33591): No Synergy
combination effect with Norfloxacin ([2]; MRSA ATCC 33591): No Synergy
combination effect with Oxacillin ([2]; MRSA ATCC 33591): No Synergy
combination effect with Tetracycline ([2]; MRSA ATCC 33591): No Synergy
combination effect with Vancomycin ([2]; MRSA ATCC 33591): Susceptible
combination effect with Norfloxacin ([2]; MRSA ATCC BAA-44): No Synergy
combination effect with Oxacillin ([2]; MRSA ATCC BAA-44): Synergy
combination effect with Tetracycline ([2]; MRSA ATCC BAA-44): Susceptible
combination effect with Vancomycin ([2]; MRSA ATCC BAA-44): Susceptible
combination effect with Gentamycin ([2]; MRSA ATCC BAA-1707): Susceptible
combination effect with Norfloxacin ([2]; MRSA ATCC BAA-1707): Susceptible
combination effect with Oxacillin ([2]; MRSA ATCC BAA-1707): Susceptible
combination effect with Tetracycline ([2]; MRSA ATCC BAA-1707): Synergy
combination effect with Vancomycin ([2]; MRSA ATCC BAA-1707): Susceptible
combination effect with Gentamycin ([2]; MRSA ATCC BAA-1717): Susceptible
combination effect with Norfloxacin ([2]; MRSA ATCC BAA-1717): Susceptible
combination effect with Oxacillin ([2]; MRSA ATCC BAA-1717): Synergy
combination effect with Tetracycline ([2]; MRSA ATCC BAA-1717): Susceptible
combination effect with Vancomycin ([2]; MRSA ATCC BAA-1717): Susceptible
combination effect with Gentamycin ([2]; MRSA ATCC BAA-1720): Susceptible
combination effect with Norfloxacin ([2]; MRSA ATCC BAA-1720): No Synergy
combination effect with Oxacillin ([2]; MRSA ATCC BAA-1720): No Synergy
combination effect with Tetracycline ([2]; MRSA ATCC BAA-1720): Susceptible
combination effect with Vancomycin ([2]; MRSA ATCC BAA-1720): Susceptible
combination effect with Gentamycin ([2]; MRSA ATCC BAA-1747): Susceptible
combination effect with Norfloxacin ([2]; MRSA ATCC BAA-1747): Susceptible
combination effect with Oxacillin ([2]; MRSA ATCC BAA-1747): Susceptible
combination effect with Tetracycline ([2]; MRSA ATCC BAA-1747): Susceptible
combination effect with Vancomycin ([2]; MRSA ATCC BAA-1747): Susceptible
combination effect with Gentamycin ([2]; MRSA ATCC BAA-1754): Susceptible
combination effect with Norfloxacin ([2]; MRSA ATCC BAA-1754): Susceptible
combination effect with Oxacillin ([2]; MRSA ATCC BAA-1754): No Synergy
combination effect with Tetracycline ([2]; MRSA ATCC BAA-1754): Susceptible
combination effect with Vancomycin ([2]; MRSA ATCC BAA-1754): Susceptible
combination effect with Gentamycin ([2]; MRSA ATCC BAA-1761): Susceptible
combination effect with Norfloxacin ([2]; MRSA ATCC BAA-1761): No Synergy
combination effect with Oxacillin ([2]; MRSA ATCC BAA-1761): Susceptible
combination effect with Tetracycline ([2]; MRSA ATCC BAA-1761): Susceptible
combination effect with Vancomycin ([2]; MRSA ATCC BAA-1761): Susceptible
combination effect with Gentamycin ([2]; MRSA ATCC BAA-1763): Susceptible
combination effect with Norfloxacin ([2]; MRSA ATCC BAA-1763): No Synergy
combination effect with Oxacillin ([2]; MRSA ATCC BAA-1763): No Synergy
combination effect with Tetracycline ([2]; MRSA ATCC BAA-1763): Susceptible
combination effect with Vancomycin ([2]; MRSA ATCC BAA-1763): Susceptible
combination effect with Gentamycin ([2]; MRSA ATCC BAA-1764): Susceptible
combination effect with Norfloxacin ([2]; MRSA ATCC BAA-1764): Susceptible
combination effect with Oxacillin ([2]; MRSA ATCC BAA-1764): No Synergy
combination effect with Tetracycline ([2]; MRSA ATCC BAA-1764): Susceptible
combination effect with Vancomycin ([2]; MRSA ATCC BAA-1764): Susceptible
combination effect with Gentamycin ([2]; MRSA ATCC BAA-1766): Susceptible
combination effect with Norfloxacin ([2]; MRSA ATCC BAA-1766): Susceptible
combination effect with Oxacillin ([2]; MRSA ATCC BAA-1766): No Synergy
combination effect with Tetracycline ([2]; MRSA ATCC BAA-1766): Susceptible
combination effect with Vancomycin ([2]; MRSA ATCC BAA-1766): Susceptible
IC50 (HeLa cells): 25.9 µM
